One series deals with RAW 264.7 cell. The series is described as follows: Inhibition effect on osteoclast differentiation (RANKL-stimulated RAW 264.7 cells, TRAP stain, osteoclast count). To be noted: RAW 264.7 + RANKL; for osteoclast differentiation degree (number of cells differentiated to osteoclasts): 7 days, osteoclasts with more than 4 nuclei, two values per concentration, control 51.5. It is filed as cell-based, mouse. On the procedure: RAW 264.7 cell, a mouse macrophage/monocyte cell line which can be differentiated in various forms depends on its surrounding environments and stimuli, is differentiated to multinucleated osteoclast by the stimulus of RANKL (100 ng/ml). Inhibition effect of each compound on osteoclast differentiation was analyzed by comparing the degree of osteoclast differentiation when RAW 264.7 cell was treated with RANKL and the subject each compound simultaneously.
Inhibition activities of osteoclast differentiation in respect of compounds 4a, 4b, 4c, 4d, 4e, 4f, 4 g, 4 h, 4i, 4j, 4k, 4l, 4m, 4n, 4o, 7a, 7b, 7c, and 7d were tested. Macrophage/monocyte RAW 264.7 cell was used as a cell and 1.5×10^3 cells were seeded in a 96 well plate. The synthesized compound and zoledronic acid as a control material were dissolved in 10% DMSO aqueous solution and treated to cells according to each concentration […].
After pre-treating each compound for 6 hours and then, treating RANKL, the incubation was carried out for 7 days in a 5% CO2 incubator. To observe osteoclasts well, they were stained by TRAP (tartrate resistance acid phosphatase) stain method. The number of cells differentiated to osteoclasts was counted and then, a comparative analysis was conducted for the degree of each compound's osteoclast differentiation.
Only the osteoclasts containing nucleus number more than 4 were only counted as effective analysis targets in both control and experiment groups (See FIGS. 1 and 2).

In a further series the test system is NF-kappa B. The series is described as follows: Inhibition of NF-kappa B in RAW264.7 cells. It is filed as cell-based, mouse. The note with it: 10 μM, 12 hours, then ALLN and RANKL 30 minutes. The source says:
It is confirmed that the compound of 4e is suppressed the mechanism of NF-kappa B 2 times more than ZA (FIG. 3)

Series [1] deals with T1, human recombinant sRNAK receptor (Homo sapiens, UniProt Q9Y6Q6).
T1 construct: human recombinant sRNAK receptor molecule; purchased PeproTech
T1 sequence (Q9Y6Q6 30-212 limits assumed): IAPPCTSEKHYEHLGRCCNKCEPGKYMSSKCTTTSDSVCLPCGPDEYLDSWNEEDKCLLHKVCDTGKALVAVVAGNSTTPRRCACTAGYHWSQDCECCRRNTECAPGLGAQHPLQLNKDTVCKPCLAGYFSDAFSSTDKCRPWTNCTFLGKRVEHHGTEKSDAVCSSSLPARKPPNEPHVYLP
The series is described as follows: Inhibition activity of RANK receptor binding (protein chip, sRANK ligand). To be noted: n=6. On the procedure:
After the human recombinant sRNAK receptor molecule (100 μg/ml, PeproTech) was fixed to the protein chip (PeproTech), human recombinant sRANK ligand (10 μg/ml, PeproTech) was treated and incubated for 1 hour. OPG molecule was used as a positive control, and the compound and OPG are simultaneously treated. A comparative analysis was conducted to compare the binding inhibition effect of the compound using OPG as a control. Mouse anti-human sRANK ligand monoclonal antibody coupled with Cy5-fluorescent (1.0 μg/ml, PeproTech) was treated for 30 minutes, and scanning the strength of luminescence by using image analysis scanner and analyzed to the GraphPad Prism 4 software. Out of the above stated compounds, compound 4e and ZA were comparatively analyzed. […] That of the compound 4e was 46.70%.

For another series, the target named is T2, human integrin αyβ3 (Homo sapiens, UniProt P05106+P06756).
T2 construct: purchased Milipore
The series is described as follows: Inhibition activity of osteopontin-integrin binding (protein chip). To be noted: n=6. On the procedure:
After the human integrin αyβ3 (100 μg/ml, Milipore) was fixed to the protein chip (PeproTech), the human recombinant OPN (40 μg/ml, PeproTech) molecule coupled with Cy5-fluorescent was reacted for 1 hour. Echistatin molecule (40 μg/ml, Sigma-Aldrich) was used as a positive control. The samples were simultaneously treated to conduct a comparative analysis for the binding inhibitory effect thereof. Finally, the strength of luminescence is scanned by using image analysis scanner and analyzed to the GraphPad Prism 4 software. […] The binding inhibitory activity of compound 4e of the invention was about 3 times higher than that of ZA (n=6)(FIG. 5).

T2 sequence (P06756 31-889 limits assumed): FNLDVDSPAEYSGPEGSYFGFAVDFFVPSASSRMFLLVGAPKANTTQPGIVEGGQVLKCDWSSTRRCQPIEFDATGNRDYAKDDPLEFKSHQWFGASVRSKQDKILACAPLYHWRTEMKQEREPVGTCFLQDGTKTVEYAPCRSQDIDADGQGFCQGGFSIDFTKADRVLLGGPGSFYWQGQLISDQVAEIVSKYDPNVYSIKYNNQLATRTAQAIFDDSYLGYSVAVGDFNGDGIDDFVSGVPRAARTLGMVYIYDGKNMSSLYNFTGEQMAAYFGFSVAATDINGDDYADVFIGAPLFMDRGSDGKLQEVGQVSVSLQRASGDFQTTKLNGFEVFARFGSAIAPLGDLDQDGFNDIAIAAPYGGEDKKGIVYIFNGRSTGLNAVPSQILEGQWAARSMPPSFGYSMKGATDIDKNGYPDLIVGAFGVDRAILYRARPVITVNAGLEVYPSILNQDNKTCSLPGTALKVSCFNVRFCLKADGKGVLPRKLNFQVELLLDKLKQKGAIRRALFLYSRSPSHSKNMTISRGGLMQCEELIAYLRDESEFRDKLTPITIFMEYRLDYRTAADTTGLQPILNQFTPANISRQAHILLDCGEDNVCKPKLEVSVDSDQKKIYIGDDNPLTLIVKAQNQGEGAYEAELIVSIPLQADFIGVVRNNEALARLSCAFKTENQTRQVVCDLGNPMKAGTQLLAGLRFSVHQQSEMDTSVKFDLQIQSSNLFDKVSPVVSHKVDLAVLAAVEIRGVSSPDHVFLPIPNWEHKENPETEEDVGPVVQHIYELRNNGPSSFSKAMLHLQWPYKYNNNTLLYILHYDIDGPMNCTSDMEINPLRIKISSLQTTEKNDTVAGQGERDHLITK
T2 sequence (P06756 891-1048 partner limits assumed): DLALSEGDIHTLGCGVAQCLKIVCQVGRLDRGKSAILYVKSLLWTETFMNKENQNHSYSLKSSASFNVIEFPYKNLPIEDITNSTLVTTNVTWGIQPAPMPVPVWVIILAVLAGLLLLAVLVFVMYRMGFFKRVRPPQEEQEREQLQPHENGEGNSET
T2 sequence (P05106 27-788): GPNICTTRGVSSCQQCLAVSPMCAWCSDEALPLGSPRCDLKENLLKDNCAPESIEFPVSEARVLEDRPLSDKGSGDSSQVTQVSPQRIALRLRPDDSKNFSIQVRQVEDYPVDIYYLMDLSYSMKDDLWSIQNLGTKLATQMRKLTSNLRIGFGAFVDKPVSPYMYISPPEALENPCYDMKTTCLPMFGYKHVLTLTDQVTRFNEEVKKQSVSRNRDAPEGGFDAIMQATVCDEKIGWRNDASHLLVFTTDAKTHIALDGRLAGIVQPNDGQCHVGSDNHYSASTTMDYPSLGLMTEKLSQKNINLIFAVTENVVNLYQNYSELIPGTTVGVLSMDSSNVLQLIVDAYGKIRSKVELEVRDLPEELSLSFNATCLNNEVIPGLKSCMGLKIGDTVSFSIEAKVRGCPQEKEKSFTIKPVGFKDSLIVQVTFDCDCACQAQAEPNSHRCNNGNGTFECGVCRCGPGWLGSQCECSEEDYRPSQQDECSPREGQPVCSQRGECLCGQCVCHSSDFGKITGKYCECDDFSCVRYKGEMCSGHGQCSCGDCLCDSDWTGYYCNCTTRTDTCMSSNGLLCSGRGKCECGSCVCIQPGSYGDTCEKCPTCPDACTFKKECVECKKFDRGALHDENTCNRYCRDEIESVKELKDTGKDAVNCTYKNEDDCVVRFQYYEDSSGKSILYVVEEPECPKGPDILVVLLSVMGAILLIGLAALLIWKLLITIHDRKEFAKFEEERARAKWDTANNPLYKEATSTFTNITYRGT

Turning to `CC(C)c1cccc(C(C)C)c1N1C(=O)C(c2ccccc2)=C(c2ccccc2)C1=O` [Compound 4a, 1-(2,6-diisopropylphenyl)-3,4-diphenyl-1H-pyrrole-2,5-dione], the melting point lay within 233 to 234 °C.

On to `O=C1C(c2ccccc2)=C(c2ccccc2)C(=O)N1c1ccccc1Cl` [Compound 4c, 1-(2-chlorophenyl)-3,4-dipheyl-1H-pyrrole-2,5-dione], for which the melting point was 213 to 214 °C. In turn, `O=C1C(c2ccccc2)=C(c2ccccc2)C(=O)N1c1cccc(Cl)c1` [Compound 4d, 1-(3-chlorophenyl)-3,4-diphenyl-1H-pyrrole-2,5-dione] yielded a melting point of 144 to 145 °C. Consider `O=C1C(c2ccccc2)=C(c2ccccc2)C(=O)N1c1ccc(Cl)cc1` [Compound 4e, 1-(4-chlorophenyl)-3,4-diphenyl-1H-pyrrole-2,5-dione], for which the “inhibition effect on osteoclast differentiation (in words)” value in the series on RAW 264.7 cell is recorded as “more superior inhibition effect on osteoclast differentiation than the control group of zoledronic acid”. Also, in the series on NF-kappa B, the “suppression of the mechanism of NF-kappa B relative to ZA” value amounted to 2 times. For the same compound, in series [1], the “binding inhibitory activity upon to RANK receptor” value turned out to be 46.70% and the “binding inhibitory activity upon to RANK receptor relative to ZA” value is “about 1.7 times”. Also, on human integrin αyβ3, the “OPN-integrin binding inhibitory activity relative to ZA” value was “about 3 times” and the “binding inhibitory rate with integrin molecule (OPN-integrin)” value (“binding inhibitory rate” for short) stood at 26.45%. Compound `O=C1C(c2ccccc2)=C(c2ccccc2)C(=O)N1c1ccccc1C(F)(F)F` [Compound 4f, 3,4-diphenyl-1-(2-(trifluoromethyl)phenyl)-1H-pyrrole-2,5-dione] displayed a melting point of 152 to 153 °C. Same read-out and setting: the figure for `O=C1C(c2ccccc2)=C(c2ccccc2)C(=O)N1C1CCCCC1` [Compound 4g, 1-cyclohexyl-3,4-diphenyl-1H-pyrrole-2,5-dione] is 159 to 160 °C; for `O=C(O)c1cc(N2C(=O)C(c3ccccc3)=C(c3ccccc3)C2=O)ccc1O` [Compound 4i, 5-(2,5-dioxo-3,4-diphenyl-2,5-dihydro-1H-pyrrol-1-yl)-2-hydroxybenzoic acid] it is 249 to 250 °C. Regarding `O=C1C(c2ccccc2)=C(c2ccccc2)C(=O)N1c1cccc(F)c1` [Compound 4k, 1-(3-fluorophenyl)-3,4-diphenyl-1H-pyrrole-2,5-dione], the melting point was 157 to 158 °C. For the same compound, the “osteoclast differentiation degree (number of cells differentiated to osteoclasts)” value (“osteoclast differentiation degree” below) in the series on RAW 264.7 cell (0.5 μM) came to 40. Besides, the “osteoclast differentiation degree” value in the series with RAW 264.7 cell (1 μM) is listed as 25. Also, in the series on RAW 264.7 cell (5 μM), the “osteoclast differentiation degree” value worked out at 40. Further, in the series with RAW 264.7 cell (10 μM), the “osteoclast differentiation degree” value is listed as 28.

In turn, `O=C1C(c2ccccc2)=C(c2ccccc2)C(=O)N1Cc1ccccc1F` [Compound 4n, 1-(2-fluorobenzyl)-3,4-diphenyl-1H-pyrrole-2,5-dione] registered a melting point of 113 to 114 °C. On the same count and under the same terms, the result for `O=C1C(c2ccccc2)=C(c2ccccc2)C(=O)N1Cc1cccc(F)c1` [Compound 4o, 1-(3-fluorobenzyl)-3,4-diphenyl-1H-pyrrole-2,5-dione] reads 107 to 108 °C. The same measure, in the same setting: the figure for `O=C1C(c2ccccc2)=C(c2ccccc2)C(=O)N1CCc1ccccc1F` [Compound 4r, 1-(2-fluorophenethyl)-3,4-diphenyl-1H-pyrrole-2,5-dione] is 111 to 112 °C; for `O=C1C(c2ccccc2)=C(c2ccccc2)C(=O)N1CCc1cccc(F)c1` [Compound 4s, 1-(3-fluorophenethyl)-3,4-diphenyl-1H-pyrrole-2,5-dione] it is 129 to 130 °C; for `O=C1C(c2ccccc2)=C(c2ccccc2)C(=O)N1CCc1ccc(F)cc1` [Compound 4t, 1-(4-fluorophenethyl)-3,4-diphenyl-1H-pyrrole-2,5-dione] it is 153 to 154 °C. In the case of `O=P(O)(O)C(O)(Cn1ccnc1)P(=O)(O)O` [ZA, zoledronic acid, reference compound], the “binding inhibitory activity upon to RANK receptor” value in series [1] was determined as 27.55%. In addition, the “binding inhibitory rate” value on human integrin αyβ3 came out at 8.65%.

For the compound Echistatin [reference compound], at human integrin αyβ3, the “binding inhibitory rate” value worked out at 51.75%. Turning to “OPG: OPG (osteoprotegrin) molecule, RANKL antagonist, used as a positive control [reference compound]”, the “binding inhibitory activity upon to RANK receptor” value in series [1] is listed as 83.65%.

These data come from US9296690B2, “Method for inhibiting differentiation of osteoclast and pharmaceutical composition comprising thereof” (Metacine, Inc., priority 2012, dated 2016).
